Laboratory results published in patent US11718600B2, “1,2,3-triazole inhibitors of P97 AAA ATPase activity” (University of Pittsburgh—Of the Commonwealth System of …, priority 2018, dated 2023).

Target: p97 (Homo sapiens, UniProt P55072)
Test: BioMol Green ATPase assay
Type: biochemical
Conditions: 200 μM ATP
Text: Biomol Green (Enzo) is a […] from a biochemical reaction. Because of its high sensitivity, the assay is suitable for monitoring enzyme activities at very early substrate conversions requiring very low amount of enzymes.
The assay procedure used may be the same as in Zhang et al., “Altered cofactor regulation with disease-associated p97/VCP mutations,” Proc. Natl. Acad. Sci. USA, 112(14), E1705-E1714 (2015).
The BioMol Green ATPase assay procedure used was that which was disclosed in Zhang, et al., “Altered cofactor regulation with disease-associated p97/VCP mutations,” Proc. Natl. Acad. Sci. USA, 112(14), E1705-E1714 (2015). Compounds also show activity in a cell-based assay such as the ubiquitin assay.

Chain of p97 (P55072 whole entry): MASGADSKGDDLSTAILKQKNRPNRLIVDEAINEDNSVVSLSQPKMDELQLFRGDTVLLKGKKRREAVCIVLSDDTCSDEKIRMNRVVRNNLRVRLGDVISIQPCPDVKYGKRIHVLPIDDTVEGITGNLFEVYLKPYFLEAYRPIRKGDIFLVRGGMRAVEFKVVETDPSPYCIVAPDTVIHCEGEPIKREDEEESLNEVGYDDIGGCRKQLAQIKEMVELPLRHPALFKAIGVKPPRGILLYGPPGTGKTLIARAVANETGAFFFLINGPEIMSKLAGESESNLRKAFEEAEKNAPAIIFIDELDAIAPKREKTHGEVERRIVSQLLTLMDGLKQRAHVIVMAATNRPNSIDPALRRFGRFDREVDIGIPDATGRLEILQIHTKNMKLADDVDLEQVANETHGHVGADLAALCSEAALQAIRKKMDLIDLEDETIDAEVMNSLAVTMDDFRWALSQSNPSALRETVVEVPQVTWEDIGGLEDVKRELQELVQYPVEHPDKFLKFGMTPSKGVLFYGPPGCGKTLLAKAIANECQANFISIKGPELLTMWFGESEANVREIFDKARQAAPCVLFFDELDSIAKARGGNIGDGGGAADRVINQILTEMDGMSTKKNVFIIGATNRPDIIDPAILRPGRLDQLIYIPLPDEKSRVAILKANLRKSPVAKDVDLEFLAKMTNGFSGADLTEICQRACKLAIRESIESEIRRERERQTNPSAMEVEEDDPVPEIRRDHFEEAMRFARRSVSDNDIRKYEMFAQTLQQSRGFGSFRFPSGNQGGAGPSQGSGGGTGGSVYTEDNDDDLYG

`CC(C)(C)OC(=O)N1CCN(C(=O)Cn2ncc(-c3cc(F)c(OCc4nnc(SC5C=CCCC5)n4-c4cccnc4)cc3F)n2)CC1` (centres unmarked) [Entry 1] and `CC(C)(C)OC(=O)N1CCN(C(=O)Cn2ncc(-c3cc(F)c(OCc4nnc(S[C@@H]5C=CCCC5)n4-c4cccnc4)cc3F)n2)CC1` [Entry 16] cannot be ordered by IC50: under 50 nM for the first, under 1000 nM for the second.

`CC(C)(C)OC(=O)N1CCN(C(=O)Cn2cc(-c3cc(F)c(OCc4nnc(SC5C=CCCC5)n4-c4cccnc4)cc3F)nn2)CC1` (centres unmarked) [Entry 2] and `CC(C)(C)OC(=O)N1CCN(C(=O)Cn2ncc(-c3cc(F)c(OCc4nnc(S[C@H]5C=CCCC5)n4-c4cccnc4)cc3F)n2)CC1` [Entry 17] cannot be ordered by IC50: under 1000 nM for the first, under 50 nM for the second.

`[2H]C1([2H])C([2H])([2H])C([2H])([2H])C([2H])(Sc2nnc(COc3cc(F)c(-c4cnn(CC(=O)N5CCN(C(=O)OC(C)(C)C)CC5)n4)cc3F)n2-c2cccnc2)C1([2H])[2H]` [Entry 3] and `[2H]C1([2H])C([2H])([2H])C([2H])([2H])C([2H])(Sc2nnc(COc3cc(F)c(-c4cn(CC(=O)N5CCN(C(=O)OC(C)(C)C)CC5)nn4)cc3F)n2-c2cccnc2)C1([2H])[2H]` [Entry 4] cannot be ordered by IC50: under 50 nM for the first, under 1000 nM for the second.

`[2H]C1([2H])C([2H])([2H])C([2H])([2H])C([2H])(Sc2nnc(COc3cc(F)c(-c4cnn(CC(=O)N5CCNCC5)n4)cc3F)n2-c2cccnc2)C1([2H])[2H]` [Entry 5] and `[2H]C1([2H])C([2H])([2H])C([2H])([2H])C([2H])(Sc2nnc(COc3cc(F)c(-c4cn(CC(=O)N5CCNCC5)nn4)cc3F)n2-c2cccnc2)C1([2H])[2H]` [Entry 6] cannot be ordered by IC50: under 50 nM for the first, under 1000 nM for the second.

`CN1CCN(C(=O)Cn2ncc(-c3cc(F)c(OCc4nnc(SC5C=CCCC5)n4-c4cccnc4)cc3F)n2)CC1` (centres unmarked) [Entry 7] and `CN1CCN(C(=O)Cn2ncc(-c3cc(F)c(OCc4nnc(S[C@H]5C=CCCC5)n4-c4cccnc4)cc3F)n2)CC1` [Entry 13] cannot be ordered by IC50: under 50 nM for the first, under 50 nM for the second.

`CC(C)(C)OC(=O)N1CCN(CCn2ncc(-c3cc(F)c(OCc4nnc(SC5C=CCCC5)n4-c4cccnc4)cc3F)n2)CC1` (centres unmarked) [Entry 8] and `CN1CCN(C(=O)OCCn2ncc(-c3cc(F)c(OCc4nnc(S[C@H]5C=CCCC5)n4-c4cccnc4)cc3F)n2)CC1` [Entry 12] cannot be ordered by IC50: under 100 nM for the first, under 100 nM for the second.

`OCCn1ncc(-c2cc(F)c(OCc3nnc(SC4C=CCCC4)n3-c3cccnc3)cc2F)n1` (centres unmarked) [Entry 9] and `OCCn1ncc(-c2cc(F)c(OCc3nnc(S[C@H]4C=CCCC4)n3-c3cccnc3)cc2F)n1` [Entry 15] cannot be ordered by IC50: under 50 nM for the first, under 50 nM for the second.

`CN1CCC(NC(=O)OCCn2ncc(-c3cc(F)c(OCc4nnc(SC5C=CCCC5)n4-c4cccnc4)cc3F)n2)CC1` (centres unmarked) [Entry 10] and `CN1CCC(NC(=O)Cn2ncc(-c3cc(F)c(OCc4nnc(SC5C=CCCC5)n4-c4cccnc4)cc3F)n2)CC1` (centres unmarked) [Entry 22] cannot be ordered by IC50: under 50 nM for the first, under 50 nM for the second.

`CNC(=O)OCCn1ncc(-c2cc(F)c(OCc3nnc(S[C@H]4C=CCCC4)n3-c3cccnc3)cc2F)n1` [Entry 11] and `COC(=O)Cn1ncc(-c2cc(F)c(OCc3nnc(SC4C=CCCC4)n3-c3cccnc3)cc2F)n1` (centres unmarked) [Entry 20] cannot be ordered by IC50: under 50 nM for the first, under 50 nM for the second.

`Fc1cc(-c2cnn(CCOCc3ccccc3)n2)c(F)cc1OCc1nnc(SC2C=CCCC2)n1-c1cccnc1` (centres unmarked) [Entry 14] and `O=C(O)Cn1ncc(-c2cc(F)c(OCc3nnc(SC4C=CCCC4)n3-c3cccnc3)cc2F)n1` (centres unmarked) [Entry 21] cannot be ordered by IC50: under 1000 nM for the first, under 100 nM for the second.

`OCCn1cc(-c2cc(F)c(OCc3nnc(SC4C=CCCC4)n3-c3cccnc3)cc2F)nn1` (centres unmarked) [Entry 18] and `CN1CCC(NC(=O)OCCn2cc(-c3cc(F)c(OCc4nnc(SC5C=CCCC5)n4-c4cccnc4)cc3F)nn2)CC1` (centres unmarked) [Entry 19] cannot be ordered by IC50: under 1000 nM for the first, under 1000 nM for the second.

For `COC(=O)Cn1ncc(-c2cc(F)c(OCc3nnc(S[C@H]4C=CCCC4)n3-c3cccnc3)cc2F)n1` [Entry 23], the IC50 was under 50 nM.
